# From patent US12616674B2, “Anti-fibrotic NEU3 inhibitor compounds and methods of use” (The Texas A&M University System, priority 2019, dated 2026)
# Target: T1, recombinant mouse NEU3 (Mus musculus, UniProt Q9JMH7)
# T1 construct: c-Myc; host or cells: HEK 293 Freestyle cells
# T1 sequence (Q9JMH7 1-418): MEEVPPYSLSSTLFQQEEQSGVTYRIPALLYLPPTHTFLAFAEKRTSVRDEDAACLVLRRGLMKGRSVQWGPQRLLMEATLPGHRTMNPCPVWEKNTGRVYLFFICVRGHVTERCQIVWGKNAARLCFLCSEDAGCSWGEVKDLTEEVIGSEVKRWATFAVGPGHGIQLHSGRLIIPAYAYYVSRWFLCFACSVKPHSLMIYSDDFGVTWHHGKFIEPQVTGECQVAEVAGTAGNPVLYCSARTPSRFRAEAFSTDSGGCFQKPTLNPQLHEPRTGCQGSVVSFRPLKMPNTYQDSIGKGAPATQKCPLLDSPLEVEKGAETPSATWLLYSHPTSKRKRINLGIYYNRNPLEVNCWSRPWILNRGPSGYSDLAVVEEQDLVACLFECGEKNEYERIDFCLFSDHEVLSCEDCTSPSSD
# Assay: Recombinant mouse NEU3-catalyzed TGF-β1 activation (TGF-β1 ELISA)
# Format: biochemical
# Details: recombinant mouse NEU3, FIGS. 7A-B
# Method: To determine if selected NEU3 inhibitors could be used in mice to inhibit mouse NEU3, we made recombinant mouse NEU3 in HEK 293 Freestyle human embryonic kidney cells. HEK 293 Freestyle cells (Life Technologies, Grand Island, NY) were cultured in FreeStyle 293 media (12338-018, Life Technologies, Grand Island, NY). 1×10^5 cells were mixed with 2 μg of 100 μg/ml of murine Neu3 expression clone (MR223297, Origene), in 100 μl PBS (GE Lifesciences), and were transfected by electroporation using a 4D-Nucelofactor System (Lonza) following the manufacturer's protocol. The transfected cells were kept at room temperature for 15 minutes for recovery, after which the cells were cultured in 25 ml Freestyle 293 media with 250 μg/ml of G418 antibiotic (345812, Calbiochem EMD Chemicals Inc. San Diego, CA) to select for transfected cells, in a 200 ml cell culture flask (431464U, Corning) at 37° C. humidified with 5% CO2. After 10 days, the cells were isolated, lysed, and c-Myc tagged recombinant mouse NEU3 protein was purified using a Myc-Trap A kit (ytak-20, Chromotek, Hauppauge, NY) following the manufacturer's protocol. The eluted protein was stored in 50 μl of 10% glycerol, 100 mM glycine, 25 mM Tris-HCl pH 7.3.
# To determine if NEU3 inhibitors would be effective in mice, NEU3 inhibitors were tested against recombinant mouse NEU3. […]
row,Structure (SMILES),inhibition of NEU3's activation of TGF-β1
1,"COC(=O)c1ccccn1 [Compound 6, methyl picolinate]",inhibited
2,"CC(=O)c1ccccn1 [Compound 5, 2-acetylpyridine]",inhibited
